Experiment: Preservation stability of the coating liquid
Assay type: physicochemical
Outline: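 Coating liquid stored 2 months at 0° C shielded from light, then graded A–E. Grades rest on visual appearance, change in composition by GPC, and weight ratio of insoluble components to total solids.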

[1] = coating liquid stored for 2 months shielded from light at 0° C., appearance and GPC

C=CC(=O)OCCCOc1ccc(C(=O)OCCc2ccc(OC(=O)c3ccc(OCCCOC(=O)C=C)cc3)c(/C=N/Nc3nc4cc(C#N)ccc4s3)c2)cc1 [1-c-25]
Preservation stability [1]: B (No visual change in the appearance of the coating liquid was confirmed. A GPC analysis of the coating liquid confirmed that the change in the composition of the coating liquid was 2% or less.)

C=CC(=O)OCCCOc1ccc(OC(=O)C2CCC(C(=O)OCCc3ccc(OC(=O)C4CCC(C(=O)Oc5ccc(OCCCOC(=O)C=C)cc5)CC4)c(C=NNc4nc5ccccc5s4)c3)CC2)cc1 (stereo not drawn) [1-c-13]
Preservation stability [1]: A (No visual change in the appearance of the coating liquid was confirmed. A GPC analysis of the coating liquid confirmed that the change in the composition of the coating liquid was 1% or less.)

C=CC(=O)OCCCCCOc1ccc(OC(=O)C2CCC(C(=O)OCCc3ccc(OC(=O)C4CCC(C(=O)Oc5ccc(OCCCCCOC(=O)C=C)cc5)CC4)c(C=NNc4nc5ccccc5s4)c3)CC2)cc1 (stereo not drawn) [1-c-15]
Preservation stability [1]: A (No visual change in the appearance of the coating liquid was confirmed. A GPC analysis of the coating liquid confirmed that the change in the composition of the coating liquid was 1% or less.)

C=CC(=O)OCCCOc1ccc(C(=O)Oc2ccc3cc(C(=O)Oc4ccc(OCCCOC(=O)C=C)cc4/C=N/Nc4nc5ccccc5s4)ccc3c2)cc1 [1-eh-74]
Preservation stability [1]: A (No visual change in the appearance of the coating liquid was confirmed. A GPC analysis of the coating liquid confirmed that the change in the composition of the coating liquid was 1% or less.)

C=CC(=O)OCCCCCCOC1CCC(OC(=O)C2CCC(C(=O)Oc3ccc(OC(=O)C4CCC(C(=O)OC5CCC(OCCCCCCOC(=O)C=C)CC5)CC4)c4c3SC(=C(C#N)C(=O)OCC)S4)CC2)CC1 (stereo not drawn) [r-3, reference compound]
Preservation stability [1]: C (A visual change in the appearance of the coating liquid was confirmed; a trace amount of insoluble components were confirmed, or a GPC analysis of the coating liquid confirmed that the change in the composition of the coating liquid was 3% or less.)

C=CC(=O)OCCCOc1ccc(OC(=O)C2CCC(COc3ccc(OCC4CCC(C(=O)Oc5ccc(OCCCOC(=O)C=C)cc5)CC4)c(/C=N/N(CCOCCOC)c4nc5ccccc5s4)c3)CC2)cc1 (stereo not drawn) [1-cmn-92]
Preservation stability [1]: A (No visual change in the appearance of the coating liquid was confirmed. A GPC analysis of the coating liquid confirmed that the change in the composition of the coating liquid was 1% or less.)

C=CC(=O)OCCOCCOCCOc1ccc(OC(=O)C2CCC(COc3ccc(OCC4CCC(C(=O)Oc5ccc(OCCOCCOCCOC(=O)C=C)cc5)CC4)c(/C=N/N(CCCCCC)c4nc5ccccc5s4)c3)CC2)cc1 (stereo not drawn) [1-cmn-90]
Preservation stability [1]: A (No visual change in the appearance of the coating liquid was confirmed. A GPC analysis of the coating liquid confirmed that the change in the composition of the coating liquid was 1% or less.)

C=CC(=O)OCCCCOC1CCC(C(=O)Oc2ccc(OC(=O)C3CCC(OCCCCOC(=O)C=C)CC3)c(/C=N/Nc3nc4ccccc4s3)c2)CC1 (stereo not drawn) [1-f-18]
Preservation stability [1]: A (No visual change in the appearance of the coating liquid was confirmed. A GPC analysis of the coating liquid confirmed that the change in the composition of the coating liquid was 1% or less.)

C=CC(=O)OCCCOc1ccc(C(=O)OCCc2ccc(OC(=O)c3ccc(OCCCOC(=O)C=C)cc3)c(/C=N/Nc3nc4cc(Cl)ccc4s3)c2)cc1 [1-c-24]
Preservation stability [1]: B (No visual change in the appearance of the coating liquid was confirmed. A GPC analysis of the coating liquid confirmed that the change in the composition of the coating liquid was 2% or less.)

C=CC(=O)OCCCCCCOc1ccc(OC(=O)C2CCC(COc3ccc(OCC4CCC(C(=O)Oc5ccc(OCCCCCCOC(=O)C=C)cc5)CC4)c(/C=N/N(CCOC(=O)C=C)c4nc5ccccc5s4)c3)CC2)cc1 (stereo not drawn) [1-cmn-93]
Preservation stability [1]: A (No visual change in the appearance of the coating liquid was confirmed. A GPC analysis of the coating liquid confirmed that the change in the composition of the coating liquid was 1% or less.)

C=CC(=O)OCCCCOC(=O)C1CCC(C(=O)OC2CCC(C(=O)Oc3ccc(OC(=O)C4CCC(OC(=O)C5CCC(C(=O)OCCCCOC(=O)C=C)CC5)CC4)c(/C=N/N(CCCC)c4nc5ccccc5s4)c3)CC2)CC1 (stereo not drawn) [1-f-99]
Preservation stability [1]: A (No visual change in the appearance of the coating liquid was confirmed. A GPC analysis of the coating liquid confirmed that the change in the composition of the coating liquid was 1% or less.)

C=CC(=O)OCCCCCCOc1ccc(CCC(=O)Oc2ccc(OC(=O)CCc3ccc(OCCCCCCOC(=O)C=C)cc3)c(/C=N/Nc3nc4ccccc4s3)c2)cc1 [1-c-51]
Preservation stability [1]: A (No visual change in the appearance of the coating liquid was confirmed. A GPC analysis of the coating liquid confirmed that the change in the composition of the coating liquid was 1% or less.)

C=CC(=O)OCCCCOc1ccc(C(=O)OCCc2ccc(OC(=O)c3ccc(OCCCCOC(=O)C=C)cc3)c(/C=N/N(CCCCCC)c3nc4ccc5ccccc5c4s3)c2)cc1 [1-c-40]
Preservation stability [1]: A (No visual change in the appearance of the coating liquid was confirmed. A GPC analysis of the coating liquid confirmed that the change in the composition of the coating liquid was 1% or less.)

C=CC(=O)OCCCCOC(=O)/C=C/c1ccc(C(=O)Oc2ccc(OC(=O)c3ccc(/C=C/C(=O)OCCCCOC(=O)C=C)cc3)c(/C=N/Nc3nc4ccc5ccccc5c4s3)c2)cc1 [1-j-65]
Preservation stability [1]: B (No visual change in the appearance of the coating liquid was confirmed. A GPC analysis of the coating liquid confirmed that the change in the composition of the coating liquid was 2% or less.)

C=CC(=O)OCCCOc1ccc(/C=C/C(=O)Oc2ccc(OC(=O)/C=C/c3ccc(OCCCOC(=O)C=C)cc3)c(/C=N/Nc3nc4ccccc4s3)c2)cc1 [1-c-44]
Preservation stability [1]: B (No visual change in the appearance of the coating liquid was confirmed. A GPC analysis of the coating liquid confirmed that the change in the composition of the coating liquid was 2% or less.)

C=CC(=O)OCCCCCCOc1ccc(C(=O)Oc2ccc(OC(=O)c3ccc(OCCCCCCOC(=O)C=C)cc3)c(/C=N/N(CCCCCC)c3nc4ccccc4s3)c2)cc1 [1-cn-83]
Preservation stability [1]: A (No visual change in the appearance of the coating liquid was confirmed. A GPC analysis of the coating liquid confirmed that the change in the composition of the coating liquid was 1% or less.)

C=CC(=O)OCCCOc1ccc(C(=O)Oc2ccc(C(=O)Oc3ccc(OCCCOC(=O)C=C)cc3/C=N/Nc3nc4ccccc4s3)cc2)cc1 [1-eh-71]
Preservation stability [1]: A (No visual change in the appearance of the coating liquid was confirmed. A GPC analysis of the coating liquid confirmed that the change in the composition of the coating liquid was 1% or less.)

C=CC(=O)OCCCCOc1ccc(CCC(=O)Oc2ccc(OC(=O)CCc3ccc(OCCCCOC(=O)C=C)cc3)c(/C=N/Nc3nc4ccccc4s3)c2)cc1 [1-c-50]
Preservation stability [1]: A (No visual change in the appearance of the coating liquid was confirmed. A GPC analysis of the coating liquid confirmed that the change in the composition of the coating liquid was 1% or less.)

C=CC(=O)OCCCCCOc1ccc(C(=O)OCCc2ccc(OC(=O)c3ccc(OCCCCCOC(=O)C=C)cc3)c(/C=N/Nc3nc4cc(O)c([N+](=O)[O-])cc4[nH]3)c2)cc1 [1-c-29]
Preservation stability [1]: B (No visual change in the appearance of the coating liquid was confirmed. A GPC analysis of the coating liquid confirmed that the change in the composition of the coating liquid was 2% or less.)

C=CC(=O)OCCCCCCOc1ccc(OC(=O)C2CCC(COc3ccc(OCC4CCC(C(=O)Oc5ccc(OCCCCCCOC(=O)C=C)cc5)CC4)c(/C=N/N(C(=O)C=C)c4nc5ccccc5s4)c3)CC2)cc1 (stereo not drawn) [1-cmn-108]
Preservation stability [1]: A (No visual change in the appearance of the coating liquid was confirmed. A GPC analysis of the coating liquid confirmed that the change in the composition of the coating liquid was 1% or less.)

C=CC(=O)OCCCCCCOc1ccc(OC(=O)C2CCC(COc3ccc(OCC4CCC(C(=O)Oc5ccc(OCCCCCCOC(=O)C=C)cc5)CC4)c(/C=N/Nc4nc5ccccc5s4)c3)CC2)cc1 (stereo not drawn) [1-cm-88]
Preservation stability [1]: A (No visual change in the appearance of the coating liquid was confirmed. A GPC analysis of the coating liquid confirmed that the change in the composition of the coating liquid was 1% or less.)

C=CC(=O)OCCCCCCOC(=O)/C=C/c1ccc(C(=O)Oc2ccc(OC(=O)c3ccc(/C=C/C(=O)OCCCCCCOC(=O)C=C)cc3)c(/C=N/Nc3nc4ccccc4s3)c2)cc1 [1-j-62]
Preservation stability [1]: B (No visual change in the appearance of the coating liquid was confirmed. A GPC analysis of the coating liquid confirmed that the change in the composition of the coating liquid was 2% or less.)

C=CC(=O)OCCCCCCOc1ccc(OC(=O)C2CCC(C(=O)Oc3ccc(OC(=O)C4CCC(C(=O)Oc5ccc(OCCCCCCOC(=O)C=C)cc5)CC4)c4c3SC(=C(C#N)C#N)S4)CC2)cc1 (stereo not drawn) [r-2, reference compound]
Preservation stability [1]: C (A visual change in the appearance of the coating liquid was confirmed; a trace amount of insoluble components were confirmed, or a GPC analysis of the coating liquid confirmed that the change in the composition of the coating liquid was 3% or less.)

C=CC(=O)OCCCOc1ccc(C(=O)OCCc2ccc(OC(=O)c3ccc(OCCCOC(=O)C=C)cc3)c(/C=N/Nc3nc4cc(CCC)ccc4s3)c2)cc1 [1-c-26]
Preservation stability [1]: A (No visual change in the appearance of the coating liquid was confirmed. A GPC analysis of the coating liquid confirmed that the change in the composition of the coating liquid was 1% or less.)

C=CC(=O)OCCCCCCOc1ccc(C(=O)Oc2ccc(-c3ccc(OC(=O)c4ccc(OCCCCCCOC(=O)C=C)cc4)c(/C=N/Nc4nc5ccccc5s4)c3)cc2)cc1 [1-hk-84]
Preservation stability [1]: A (No visual change in the appearance of the coating liquid was confirmed. A GPC analysis of the coating liquid confirmed that the change in the composition of the coating liquid was 1% or less.)
Preservation stability (summary in words): high

C=CC(=O)OCCCCOC(=O)C1CCC(C(=O)OC2CCC(C(=O)Oc3ccc(OC(=O)C4CCC(OC(=O)C5CCC(C(=O)OCCCCOC(=O)C=C)CC5)CC4)c(/C=N/N(CCCCC)c4nc5ccccc5s4)c3)CC2)CC1 (stereo not drawn) [1-f-98]
Preservation stability [1]: A (No visual change in the appearance of the coating liquid was confirmed. A GPC analysis of the coating liquid confirmed that the change in the composition of the coating liquid was 1% or less.)
